Assay results: ChEMBL document CHEMBL1201862, “PubChem BioAssay data set” (2004)
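Grown in 96-well plates, cells were treated for 48 hours with each compound at five concentrations. Insufficient inhibition: endpoint recorded as highest concentration tested. GI50: concentration for 50% inhibition of growth.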 The source made the active and inactive calls. No stated cut-off is given here; in the data, active = GI50 up to about 1.1 µM and inactive = higher.

Assays:
Assay in all cases: DTP human tumour cell line panel, 48 h
[1] = system: NCI-H23
[2] = system: SN12C
[3] = system: OVCAR-5
[4] = system: TK-10
[5] = system: NCI-H522
[6] = system: SK-OV-3
[7] = system: MOLT-4
[8] = system: NCI-H460
[9] = system: M14
[10] = system: SF-268
[11] = system: UO-31
[12] = system: IGROV-1
[13] = system: MCF7
[14] = system: HCC 2998
[15] = system: Hs-578T
[16] = system: OVCAR-3
[17] = system: HCT-15
[18] = system: SK-MEL-28
[19] = system: OVCAR-4
[20] = system: CCRF-CEM

COc1ccccc1OC(=O)/C=C/c1ccccc1
GI50 [1]: > 100 µM (inactive)
GI50 [2]: > 100 µM (inactive)
GI50 [3]: > 100 µM (inactive)
GI50 [4]: 84.1 µM (inactive)
GI50 [5]: > 100 µM (inactive)
GI50 [6]: > 100 µM (inactive)
GI50 [7]: 17.4 µM (inactive)
GI50 [8]: 33 µM (inactive)
GI50 [9]: > 100 µM (inactive)
GI50 [10]: 52.1 µM (inactive)
GI50 [11]: > 100 µM (inactive)
GI50 [12]: > 100 µM (inactive)
GI50 [13]: > 100 µM (inactive)
GI50 [14]: > 100 µM (inactive)
GI50 [15]: > 100 µM (inactive)
GI50 [16]: > 100 µM (inactive)
GI50 [17]: > 100 µM
GI50 [18]: > 100 µM (inactive)
GI50 [19]: > 100 µM (inactive)

CCCCCCCCCCCCCCCCCCNc1ccn(C2OC(CO)C(OP(=O)(O)OCC(O)COP(=O)(O)OCC3OC(n4cc(F)c(NCCCCCCCCCCCCCCCCCC)nc4=O)CC3O)C2O)c(=O)n1 (stereo not drawn)
GI50 [1]: > 50 µM (inactive)
GI50 [2]: > 50 µM (inactive)
GI50 [3]: > 50 µM (inactive)
GI50 [4]: > 50 µM (inactive)
GI50 [5]: > 50 µM (inactive)
GI50 [6]: > 50 µM (inactive)
GI50 [8]: > 50 µM (inactive)
GI50 [9]: > 50 µM (inactive)
GI50 [10]: > 50 µM (inactive)
GI50 [11]: > 50 µM (inactive)
GI50 [12]: > 50 µM (inactive)
GI50 [13]: > 50 µM (inactive)
GI50 [14]: > 50 µM (inactive)
GI50 [15]: > 50 µM (inactive)
GI50 [16]: > 50 µM (inactive)
GI50 [17]: > 50 µM
GI50 [18]: > 50 µM (inactive)
GI50 [19]: > 50 µM (inactive)

O=C1CC(CC(=O)c2ccc(Br)cc2)C(O)=C1C(=O)c1ccc(Br)cc1 (stereo not drawn)
GI50 [1]: 87.7 µM (inactive)
GI50 [2]: > 100 µM (inactive)
GI50 [3]: > 100 µM (inactive)
GI50 [4]: > 100 µM (inactive)
GI50 [5]: 51.6 µM (inactive)
GI50 [6]: > 100 µM (inactive)
GI50 [7]: 41.7 µM (inactive)
GI50 [8]: 50.7 µM (inactive)
GI50 [9]: 85.5 µM (inactive)
GI50 [10]: 87.1 µM (inactive)
GI50 [11]: 57.9 µM (inactive)
GI50 [12]: > 100 µM (inactive)
GI50 [13]: > 100 µM (inactive)
GI50 [14]: > 100 µM (inactive)
GI50 [15]: 50 µM (inactive)
GI50 [16]: 32.6 µM (inactive)
GI50 [20]: 53.2 µM (inactive)
GI50 [17]: > 100 µM
GI50 [18]: > 100 µM (inactive)

CCOC(=O)C1C(c2ccco2)C2(C#N)C(=N)OC1(C)C2(C#N)C#N (stereo not drawn)
GI50 [1]: > 100 µM (inactive)
GI50 [2]: > 100 µM (inactive)
GI50 [3]: > 100 µM (inactive)
GI50 [4]: > 100 µM (inactive)
GI50 [5]: > 100 µM (inactive)
GI50 [6]: > 100 µM (inactive)
GI50 [7]: > 100 µM (inactive)
GI50 [9]: > 100 µM (inactive)
GI50 [10]: > 100 µM (inactive)
GI50 [11]: > 100 µM (inactive)
GI50 [12]: > 100 µM (inactive)
GI50 [13]: > 100 µM (inactive)
GI50 [14]: > 100 µM (inactive)
GI50 [15]: > 100 µM (inactive)
GI50 [20]: > 100 µM (inactive)
GI50 [17]: 33.1 µM

COc1cc(C2SC(=N)Nc3c2c(C)nn3C(=O)Cc2ccccc2)cc(OC)c1OC (stereo not drawn)
GI50 [1]: > 100 µM (inactive)
GI50 [2]: > 100 µM (inactive)
GI50 [4]: > 100 µM (inactive)
GI50 [5]: > 100 µM (inactive)
GI50 [6]: > 100 µM (inactive)
GI50 [7]: > 100 µM (inactive)
GI50 [8]: > 100 µM (inactive)
GI50 [9]: > 100 µM (inactive)
GI50 [10]: > 100 µM (inactive)
GI50 [11]: > 100 µM (inactive)
GI50 [12]: > 100 µM (inactive)
GI50 [13]: > 100 µM (inactive)
GI50 [14]: > 100 µM (inactive)
GI50 [15]: > 100 µM (inactive)
GI50 [20]: > 100 µM (inactive)
GI50 [17]: > 100 µM
GI50 [18]: > 100 µM (inactive)

O=C(Oc1cncc(Cl)c1)c1cc2ccccc2sc1=O
GI50 [1]: 58.7 µM (inactive)
GI50 [2]: 60.3 µM (inactive)
GI50 [3]: > 100 µM (inactive)
GI50 [4]: 76.7 µM (inactive)
GI50 [5]: 19.5 µM (inactive)
GI50 [6]: > 100 µM (inactive)
GI50 [7]: 23.7 µM (inactive)
GI50 [8]: 82.8 µM (inactive)
GI50 [9]: 33.3 µM (inactive)
GI50 [10]: 49.5 µM (inactive)
GI50 [11]: > 100 µM (inactive)
GI50 [12]: 49.5 µM (inactive)
GI50 [13]: 39.4 µM (inactive)
GI50 [14]: 32.7 µM (inactive)
GI50 [15]: 38.9 µM (inactive)
GI50 [16]: 60.5 µM (inactive)
GI50 [17]: 38.5 µM
GI50 [18]: 46.5 µM (inactive)
GI50 [19]: 73.6 µM (inactive)
